Measured values from ChEMBL document CHEMBL1201862, “PubChem BioAssay data set” (2004).
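Cells were grown in 96-well plates and exposed to each compound for 48 hours at five concentrations; endpoints were interpolated linearly between bracketing concentrations, or set to the highest concentration if not reached. GI50 marks 50% less growth.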 Active and inactive are the calls of the source. No stated cut-off is given here; in the data, active = GI50 up to about 1.1 µM and inactive = higher.

Tests used:
Assay in all cases: DTP human tumour cell line panel, 48 h
MOLT-4 = tested on: MOLT-4
COLO 205 = tested on: COLO 205
RXF 393 = tested on: RXF 393
SK-MEL-2 = tested on: SK-MEL-2
UACC-62 = tested on: UACC-62
CAKI-1 = tested on: CAKI-1
HOP-92 = tested on: HOP-92
TK-10 = tested on: TK-10
U-251 = tested on: U-251
HCC 2998 = tested on: HCC 2998
SNB-75 = tested on: SNB-75
NCI-H226 = tested on: NCI-H226
SK-OV-3 = tested on: SK-OV-3
NCI-H522 = tested on: NCI-H522
OVCAR-8 = tested on: OVCAR-8
HCT-15 = tested on: HCT-15
SN12C = tested on: SN12C
ACHN = tested on: ACHN
NCI-H23 = tested on: NCI-H23
K562 = tested on: K562

| Structure (SMILES) | GI50 (MOLT-4) | GI50 (COLO 205) | GI50 (RXF 393) | GI50 (SK-MEL-2) | GI50 (UACC-62) | GI50 (CAKI-1) | GI50 (HOP-92) | GI50 (TK-10) | GI50 (U-251) | GI50 (HCC 2998) | GI50 (SNB-75) | GI50 (NCI-H226) | GI50 (SK-OV-3) | GI50 (NCI-H522) | GI50 (OVCAR-8) | GI50 (HCT-15) | GI50 (SN12C) | GI50 (ACHN) | GI50 (NCI-H23) | GI50 (K562) |
| --- | --- | --- | --- | --- | --- | --- | --- | --- | --- | --- | --- | --- | --- | --- | --- | --- | --- | --- | --- | --- |
| [O-]c1c2c(nn1-c1ccc(F)cc1)c1ccccc1c[n+]2Cc1ccccc1 | 5.45 µM (inactive) | 1.76 µM (inactive) | 15.1 µM (inactive) | 0.501 µM (active) | 2 µM (inactive) | 18.8 µM (inactive) | 18.9 µM (inactive) | 24.6 µM (inactive) | 16.4 µM (inactive) | 11.7 µM (inactive) | 23.3 µM (inactive) | 16.6 µM (inactive) | 14.6 µM (inactive) | 4.12 µM (inactive) | 12.8 µM (inactive) | 0.581 µM | 16.4 µM (inactive) | 1.77 µM (inactive) | 16.3 µM (inactive) | 0.687 µM (active) |
| O=C1/C(=C/c2cccc([N+](=O)[O-])c2)N=C(c2ccccc2)N1c1nc2ccc(Sc3ccccc3)cc2[nH]1 | 34.8 µM (inactive) | 31.8 µM (inactive) | 74.3 µM (inactive) | 30.3 µM (inactive) | 36.1 µM (inactive) | 65.5 µM (inactive) | 71.4 µM (inactive) | 71.4 µM (inactive) | 37.3 µM (inactive) | 67.6 µM (inactive) | 52.4 µM (inactive) | > 100 µM (inactive) | 34.4 µM (inactive) | 32.9 µM (inactive) | 45.1 µM (inactive) | 35.6 µM | 60 µM (inactive) | > 100 µM (inactive) | 46.6 µM (inactive) | 30.9 µM (inactive) |
| COc1ccc(OC)c(C2CCc3nc4nc(N)nc(N)c4cc3C2)c1 (stereo not given) | 2.12 µM (inactive) | 3.32 µM (inactive) | 2.69 µM (inactive) | 1.97 µM (inactive) | 2.03 µM (inactive) | 20.8 µM (inactive) | 2.19 µM (inactive) | 9.77 µM (inactive) | 1.76 µM (inactive) | 1.74 µM (inactive) | 1.94 µM (inactive) | 8.47 µM (inactive) | 4.1 µM (inactive) | 2.19 µM (inactive) | 2.47 µM (inactive) | 14.1 µM | 1.77 µM (inactive) | 12 µM (inactive) | 18.5 µM (inactive) | 2.31 µM (inactive) |
| O=c1nc2n(c3nsnc13)CCO2 | > 100 µM (inactive) | > 100 µM (inactive) | > 100 µM (inactive) | > 100 µM (inactive) | > 100 µM (inactive) | > 100 µM (inactive) | > 100 µM (inactive) | > 100 µM (inactive) | > 100 µM (inactive) | > 100 µM (inactive) | > 100 µM (inactive) | > 100 µM (inactive) | > 100 µM (inactive) | > 100 µM (inactive) | > 100 µM (inactive) | > 100 µM | > 100 µM (inactive) | > 100 µM (inactive) | > 100 µM (inactive) | > 100 µM (inactive) |
| CC(C)=CC1CC(=[N+]=[N-])C(=O)C1(C)C (stereo not given) | > 100 µM (inactive) | > 100 µM (inactive) | > 31.6 µM (inactive) | > 100 µM (inactive) | > 100 µM (inactive) | > 100 µM (inactive) | > 80.7 µM (inactive) | > 100 µM (inactive) | > 100 µM (inactive) | > 100 µM (inactive) | > 46.7 µM (inactive) | > 100 µM (inactive) | > 100 µM (inactive) | > 80.7 µM (inactive) | > 100 µM (inactive) | 86.5 µM | > 100 µM (inactive) | > 100 µM (inactive) | > 100 µM (inactive) | > 71.1 µM (inactive) |
| CO[C@H]1C=CO[C@@]2(C)Oc3c(C)c(O)c4c(O)c(c(CN5CCN(C)CC5)c(O)c4c3C2=O)NC(=O)/C(C)=C\C=C[C@H](C)[C@H](O)C(C)[C@@H](O)C(C)[C@H](OC(C)=O)[C@@H]1C (stereo not given in full) | 5.87 µM (inactive) | 5.7 µM (inactive) | 48.3 µM (inactive) | 41.8 µM (inactive) | 34.6 µM (inactive) | > 77.1 µM (inactive) | 71.4 µM (inactive) | 49.4 µM (inactive) | 32.7 µM (inactive) | 44.4 µM (inactive) | 72.9 µM (inactive) | > 63.5 µM (inactive) | > 100 µM (inactive) | 18.3 µM (inactive) | 20 µM (inactive) | 30.8 µM | 30.3 µM (inactive) | > 75.3 µM (inactive) | 14.6 µM (inactive) | 20.9 µM (inactive) |
| Cc1c(N)nc(C2CC(=O)N2CC(N)C(N)=O)nc1C(=O)NC(C(=O)NC(C)C(O)C(C)C(=O)NC(C(=O)NCCc1nc(-c2nc(C(=O)NCCNCC(C)O)cs2)cs1)C(C)O)C(OC1OC(CO)C(O)C(O)C1OC1OC(CO)C(O)C(OC(N)=O)C1O)c1c[nH]cn1 (stereo not given) | 0.701 µM (active) | 3.08 µM (inactive) | 0.0344 µM (active) | 38.1 µM (inactive) | 0.441 µM (active) | < 0.0426 µM (active) | 0.295 µM (active) | 37.6 µM (inactive) | 1.83 µM (inactive) | 21.9 µM (inactive) | 0.344 µM (active) | 0.0223 µM (active) | 8.41 µM (inactive) | 0.462 µM (active) | 3.36 µM (inactive) | 2.73 µM | 1.45 µM (inactive) | < 0.0249 µM (active) | 0.437 µM (active) | 20.1 µM (inactive) |
| CCCC1CCC(=C2C(=O)CCC2=O)O1 (stereo not given) | 0.849 µM (active) | > 100 µM (inactive) | > 100 µM (inactive) | > 100 µM (inactive) | > 100 µM (inactive) | > 100 µM (inactive) | > 100 µM (inactive) | > 100 µM (inactive) | > 100 µM (inactive) | > 100 µM (inactive) | 4.91 µM (inactive) | > 100 µM (inactive) | > 100 µM (inactive) | > 100 µM (inactive) | > 100 µM (inactive) | > 100 µM | > 100 µM (inactive) | > 100 µM (inactive) | > 100 µM (inactive) | > 100 µM (inactive) |
| CN(CCCCCl)P(=O)(OCc1ccc([N+](=O)[O-])o1)OC[C@H]1O[C@@H](n2cc(F)c(=O)[nH]c2=O)C[C@@H]1O (stereo not given in full) | 0.583 µM (active) | < 0.01 µM (active) | 0.302 µM (active) | 17.1 µM (inactive) | 0.437 µM (active) | 0.0693 µM (active) | 0.64 µM (active) | 1.79 µM (inactive) | 1.63 µM (inactive) | < 0.01 µM (active) | 0.102 µM (active) | 3.59 µM (inactive) | 0.372 µM (active) | 3.77 µM (inactive) | 0.352 µM (active) | 21.6 µM | 0.107 µM (active) | 0.0365 µM (active) | 0.989 µM (active) | 12.4 µM (inactive) |
